IC50 and EC50 data for 19 compounds are collected here from US20160159774A1 (Celgene Avilomics Research, Inc., priority 2014, published 2016).

Molecules are shown by their SMILES.

The target of one test is T1, activated BTK enzyme (Homo sapiens, UniProt Q06187).
T1 construct: purchased Life Technologies PV3363
Put plainly: Omnia assay for potency assessment against BTK. Type of test: biochemical. Conditions: BTK inhibition assay; [BTK]=5 nM, [ATP]=40 μM, [Y5-Sox]=10 μM. The text has this:
Omnia Assay Protocol for Potency Assessment Against BTK
The protocol below describes an assay to measure potency of compounds against the activated BTK enzyme. The mechanics of the assay platform are best described by the vendor (Life Technologies, Carlsbad, Calif.) on their website at the following URLs: www.lifetechnologies.com/us/en/home/life-science/drug-discovery/target-and-lead-identification-and-validation/kinasebiology/kinase-activity-assays/omnia-kinase-assays/omnia-kinase-principle.html and tools.lifetechnologies.com/content/sfs/manuals/omnia_kinase_assay_man.pdf
Briefly, 10× stocks of BTK (PV3363) from Life Technologies, 1.13×ATP (AS00lA) and Sox conjugated peptide substrates, Y5-Sox, (KZN305l) were prepared in 1× kinase reaction buffer consisting of 20 mM Tris, pH 7.5, 5 mM MgCl2, 1 mM EGTA, 5 mM (3-glycerophosphate, 5% glycerol (10× stock, KB002A) and 0.2 mM DTT (DS00lA). 5 μL of each enzyme were pre-incubated in a Corning (#3574) 384-well, white, non-binding surface microtiter plate (Corning, N.Y.) for 30 min. at room temperature with a 0.5 μL volume of 50% DMSO or serially diluted compounds prepared in 50% DMSO. Kinase reactions were started with the addition of […] of the ATP/Tyr-Sox peptide substrate Y5 mix and monitored every 71 seconds for 60 minutes at λex360/λem485 in a Synergy4 plate reader from BioTek (Winooski, Vt.). At the conclusion of each assay, progress curves from each well were examined for linear reaction kinetics and fit statistics (R2, 95% confidence interval, absolute sum of squares). Initial velocity (0 minutes to ˜30 minutes) from each reaction was determined from the slope of a plot of relative fluorescence units vs time (minutes) and then plotted against inhibitor concentration to estimate IC50 from log [Inhibitor] vs Response, Variable Slope model in GraphPad Prism from GraphPad Software (San Diego, Calif.).
Reagent conditions for the assay are:
[BTK]=5 nM, [ATP]=40 μM, [Y5-Sox]=10 μM (ATP KMapp˜36 μM).
The compound numbers correspond to the compound numbers in the examples.

Test [1] concerns the target T2, BTK in Ramos human Burkitt lymphoma cells (Homo sapiens, UniProt Q06187).
T2 construct: Compounds of this invention were assayed in Ramos human Burkitt lymphoma cells; endogenous in cells; host or cells: Ramos human Burkitt lymphoma cells
As to the kind of experiment: BTK Ramos cellular assay (BTK occupancy). In kind it is cell-based. Conditions: concentration producing 50% occupancy of BTK, 1 hour incubation with compound. The method, then: BTK activity in Ramos cells, in the presence of a compound of the invention, can be measured by 3 different methods: 1) inhibition of autophosphorylation of BTK; 2) inhibition of phosphorylation of the immediate BTK surrogate PLCγ2; and 3) BTK occupancy. […] In this instance, BTK occupancy was chosen and is described below.
Compounds of this invention were assayed in Ramos human Burkitt lymphoma cells. Ramos cells were grown in suspension in T175 flasks, spun down, resuspended to a concentration of 2×10^6 cells per mL in serum-free media and incubated for 1 hour. Compound was added to Ramos cells to a final concentration of 500, 166.7, 55.6, 18.5, 6.2, 2.1, and 0.7 nM. Ramos cells were incubated with compound for 1 hour, washed with PBS and lysed in 1004 of BioRad lysis Buffer. Cell lysates were incubated with a biotinylated covalent probe (compound 1-215 disclosed in U.S. published application number 2010/0029610, incorporated by reference in its entirety) at a final concentration of 1 μM in a PBS, 0.05% Tween-20, 1% BSA solution for 1 h at room temperature. Standards and samples were transferred to a streptavidin-coated 96-well ELISA plate and mixed while shaking for 1 h at room temperature. The α-Btk antibody (BD 611116, 1:1000 dilution in PBS+0.05% Tween-20+0.5% BSA) was then added and incubated for 1 h at room temperature. After wash, goat α-mouse-HRP (1:5000 dilution in PBS+0.05% Tween-20+0.5% BSA) was added and incubated for 1 h at room temperature. The ELISA was developed with addition of tetramethyl benzidine (TMB) followed by Stop Solution and read at OD 450 nm. The standard curve (11.7-3000 pg/μL) was generated with human full-length recombinant Btk protein and plotted using a 4 parameter curve fit in Gen5 software. Uninhibited Btk detected from samples was normalized to μg total protein as determined by BCA protein analysis (Pierce Cat. 23225).
The results of this assay show the concentration of compound producing 50% occupancy of BTK. This level of occupancy empirically translates to a level of 50% inhibition of BTK activity (both as measured by autophosphorylation and by phosphorylation of PLCγ2). […] The compound numbers correspond to the compound numbers in the examples.

T1 sequence (Q06187 whole entry): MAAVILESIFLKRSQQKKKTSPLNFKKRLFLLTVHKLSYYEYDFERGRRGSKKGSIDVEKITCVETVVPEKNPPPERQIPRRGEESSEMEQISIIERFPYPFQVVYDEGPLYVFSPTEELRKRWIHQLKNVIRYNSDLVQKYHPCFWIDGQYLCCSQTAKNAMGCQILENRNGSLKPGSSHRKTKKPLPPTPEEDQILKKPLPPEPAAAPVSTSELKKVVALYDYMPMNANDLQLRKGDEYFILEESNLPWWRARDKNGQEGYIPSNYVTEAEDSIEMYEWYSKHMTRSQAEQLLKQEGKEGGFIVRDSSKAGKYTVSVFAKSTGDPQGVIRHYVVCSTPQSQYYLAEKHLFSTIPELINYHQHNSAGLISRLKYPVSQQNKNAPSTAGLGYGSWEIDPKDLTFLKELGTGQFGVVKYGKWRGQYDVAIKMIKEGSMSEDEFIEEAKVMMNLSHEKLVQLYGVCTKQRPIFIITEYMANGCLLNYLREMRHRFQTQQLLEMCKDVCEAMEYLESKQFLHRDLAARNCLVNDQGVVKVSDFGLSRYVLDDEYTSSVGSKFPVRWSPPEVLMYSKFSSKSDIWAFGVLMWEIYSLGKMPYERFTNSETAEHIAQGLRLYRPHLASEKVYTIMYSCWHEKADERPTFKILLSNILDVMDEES
T2 sequence (Q06187 whole entry): as above

A word on the IC50: it is the point on the concentration scale where inhibition reaches its midpoint. Broadly, the EC50 is the midpoint of the concentration-response curve. Turning to `C=CC(=O)N1CCC[C@@H](Nc2nc(Nc3ccc4c(c3)CN(C3CCC3)C4)ncc2F)C1` [Compound I-18, (R)-1-(3-((2-((2-Cyclobutylisoindolin-5-yl)amino)-5-fluoropyrimidin-4-yl)amino)piperidin-1-yl)prop-2-en-1-one], the IC50 on activated BTK enzyme is below 10 nM. Moreover, in test [1], the EC50 is below 10 nM.
Turning to `C=CC(=O)N1CCC[C@@H](Nc2nc(Nc3ccc4c(c3)CN(C)CCC4)ncc2F)C1` [Compound I-55, (R)-1-(3-(5-Fluoro-2-(2-methyl-2,3,4,5-tetrahydro-1H-benzo[c]azepin-8-ylamino)pyrimidin-4-ylamino)piperidin-1-yl)prop-2-en-1-one], the IC50 at activated BTK enzyme was below 10 nM. Also, in test [1], the EC50 fell in the range of 10 to 100 nM.
In the case of `C=CC(=O)N1CCC[C@@H](Nc2nc(Nc3ccc4c(c3)CN(CCOC)C4)ncc2F)C1` [Compound I-4, (R)-1-(3-((5-Fluoro-2-((2-(2-methoxyethyl)isoindolin-5-yl)amino)pyrimidin-4-yl)amino)piperidin-1-yl)prop-2-en-1-one], the IC50 on activated BTK enzyme was below 10 nM. For the same compound, the EC50 in test [1] is 10 to 100 nM.
With `C=CC(=O)N1CCC[C@@H](Nc2nc(Nc3ccc4c(c3)CN(CC(C)(C)C)C4)ncc2F)C1` [Compound I-14, (R)-1-(3-((5-Fluoro-2-((2-neopentylisoindolin-5-yl)amino)pyrimidin-4-yl)amino)piperidin-1-yl)prop-2-en-1-one], the IC50 on activated BTK enzyme was below 10 nM. Further, the EC50 in test [1] fell in the range of 10 to 100 nM.
The like results for `C=CC(=O)N1CCC[C@@H](Nc2nc(Nc3ccc4c(c3)CN(CC(F)(F)F)C4)ncc2F)C1` [Compound I-22, (R)-1-(3-((5-fluoro-2-((2-(2,2,2-trifluoroethyl)isoindolin-5-yl)amino)pyrimidin-4-yl)amino)piperidin-1-yl)prop-2-en-1-one] were, in that order, below 10 nM and 10 to 100 nM.
The like results for `C=CC(=O)N1CCC[C@@H](Nc2nc(Nc3ccc4c(c3)CN(CC3COC3)CC4)ncc2F)C1` [Compound I-36, (R)-1-(3-(5-Fluoro-2-(2-(oxetan-3-ylmethyl)-1,2,3,4-tetrahydroisoquinolin-7-ylamino)pyrimidin-4-ylamino)piperidin-1-yl)prop-2-en-1-one] were, in that order, below 10 nM and below 10 nM.
In the case of `C=CC(=O)N1CCC[C@@H](Nc2nc(Nc3ccc4c(c3)CCNC4)ncc2F)C1` [Compound I-27, (R)-1-(3-((5-fluoro-2-((1,2,3,4-tetrahydroisoquinolin-6-yl)amino)pyrimidin-4-yl)amino)piperidin-1-yl)prop-2-en-1-one], the IC50 on activated BTK enzyme is below 10 nM. In test [1], the EC50 lay within 10 to 100 nM.
As to `C=CC(=O)N1CCC[C@@H](Nc2nc(Nc3ccc4c(c3)CNCC4)ncc2F)C1` [Compound I-33, (R)-1-(3-(5-fluoro-2-(1,2,3,4-tetrahydroisoquinolin-7-ylamino)pyrimidin-4-ylamino)-piperidin-1-yl)prop-2-en-1-one], the IC50 on activated BTK enzyme is below 10 nM. The EC50 in test [1] is below 10 nM.
Regarding `C=CC(=O)N1CCC[C@@H](Nc2nc(Nc3ccc4c(c3)CCN(CC3CC3)C4)ncc2F)C1` [Compound I-43, (R)-1-(3-((2-((2-(cyclopropylmethyl)-1,2,3,4-tetrahydroisoquinolin-6-yl)amino)-5-fluoropyrimidin-4-yl)amino)piperidin-1-yl)prop-2-en-1-one], the IC50 on activated BTK enzyme was below 10 nM. Besides, the EC50 in test [1] is below 10 nM.
As for `C=CC(=O)N1CCC[C@@H](Nc2nc(Nc3ccc4c(c3)CN(C3(C)CCOCC3)C4)ncc2F)C1` [Compound I-40, (R)-1-(3-(5-Fluoro-2-(2-(4-methyltetrahydro-2H-pyran-4-yl)isoindolin-5-ylamino)pyrimidin-4-ylamino)piperidin-1-yl)prop-2-en-1-one], on activated BTK enzyme, the IC50 is below 10 nM. Besides, the EC50 in test [1] is below 10 nM.
As to `C=CC(=O)N1CCC[C@@H](Nc2nc(Nc3ccc4c(c3)CN(CC3COC3)C4)ncc2F)C1` [Compound I-15, (R)-1-(3-((5-Fluoro-2-((2-(oxetan-3-ylmethyl)isoindolin-5-yl)amino)pyrimidin-4-yl)amino)piperidin-1-yl)prop-2-en-1-one], on activated BTK enzyme, the IC50 was below 10 nM. In addition, the EC50 in test [1] was 10 to 100 nM.
The like results for `C=CC(=O)N1CCC[C@@H](Nc2nc(Nc3ccc4c(c3)CN(CC3CCNCC3)C4)ncc2F)C1` [Compound I-6, (R)-1-(3-((5-Fluoro-2-((2-(piperidin-4-ylmethyl)isoindolin-5-yl)amino)pyrimidin-4-yl)amino)piperidin-1-yl)prop-2-en-1-one] were, in that order, below 10 nM and 101 to 1000 nM.
The like results for `C=CC(=O)N1CCC[C@@H](Nc2nc(Nc3ccc4c(c3)CCN(C3COC3)C4)ncc2F)C1` [Compound I-31, (R)-1-(3-(5-Fluoro-2-(2-(oxetan-3-yl)-1,2,3,4-tetrahydroisoquinolin-6-ylamino)-pyrimidin-4-ylamino)piperidin-1-yl)prop-2-en-1-one] were, in that order, below 10 nM and below 10 nM.
For `C=CC(=O)N1CCC[C@@H](Nc2nc(Nc3ccc4c(c3)CN(CC3CCN(C)CC3)C4)ncc2F)C1` [Compound I-8], in that order: below 10 nM and below 10 nM.
`C=CC(=O)N1CCC[C@@H](Nc2nc(Nc3ccc4c(c3)CN(C3CCNCC3)C4)ncc2F)C1` [Compound I-5, (R)-1-(3-((5-fluoro-2-((2-(piperidin-4-yl)isoindolin-5-yl)amino)pyrimidin-4-yl)amino)piperidin-1-yl)prop-2-en-1-one]: the IC50 at activated BTK enzyme is below 10 nM. In test [1], the EC50 fell in the range of 101 to 1000 nM.
For `C=CC(=O)N1CCC[C@@H](Nc2nc(Nc3ccc4c(c3)CCCN(C3CC3)C4)ncc2F)C1` [Compound I-51, (R)-1-(3-((2-((2-Cyclopropyl-2,3,4,5-tetrahydro-1H-benzo[c]azepin-7-yl)amino)-5-fluoropyrimidin-4-yl)amino)piperidin-1-yl)prop-2-en-1-one], in that order: below 10 nM and 10 to 100 nM.
The like results for `C=CC(=O)N1CCC[C@@H](Nc2nc(Nc3ccc4c(c3)CN(C3CCN(C(C)=O)CC3)C4)ncc2F)C1` [Compound I-9, (R)-1-(3-(2-(2-(1-Acetylpiperidin-4-yl)isoindolin-5-ylamino)-5-fluoropyrimidin-4-ylamino)piperidin-1-yl)prop-2-en-1-one] were, in that order, below 10 nM and 10 to 100 nM.
The like results for `C=CC(=O)N1CCC[C@@H](Nc2nc(Nc3ccc4c(c3)CNCCC4)ncc2F)C1` [Compound I-53, (R)-1-(3-(5-Fluoro-2-(2,3,4,5-tetrahydro-1H-benzo[c]azepin-8-ylamino)pyrimidin-4-ylamino)piperidin-1-yl)prop-2-en-1-one] were, in that order, below 10 nM and below 10 nM.
For the compound `C=CC(=O)N1CCC[C@@H](Nc2nc(Nc3ccc4c(c3)CCN(C(C)=O)C4)ncc2F)C1` [Compound I-30, (R)-1-(3-((2-((2-Acetyl-1,2,3,4-tetrahydroisoquinolin-6-yl)amino)-5-fluoro-pyrimidin-4-yl)amino)piperidin-1-yl)prop-2-en-1-one], the IC50 on activated BTK enzyme was below 10 nM. The EC50 in test [1] lay in the range of 10 to 100 nM.
